Legend:
[1] = test system: S. aureus; test: Incorporation of NBD-PC, other species; format: cell-based, Staphylococcus aureus 502a; conditions: 25 μM NBD-PC, 4 hours
Method: (§1) Cells were grown to a stationary phase (5 days) in BSK and then pelleted (5 minutes at 3220 g), washed once in an equal volume of PBS, and resuspended in an equal volume of dBSK. The cell suspension (1 mL) was added to nitrobenzoxadiazole-labeled (NBD-labeled) phospholipids (Avanti) to 25 μM. At hourly intervals, the cells were pelleted (5 minutes at 18,800 g), washed 3 times in 1 mL PBS, and resuspended in 100 μL PBS. The suspensions were transferred onto clear-bottomed, opaque 96-well plates (Corning), and fluorescence was recorded at excitation 460 nm/emission 540 nm (Ex460/Em540). Staphylococcus aureus 502a and Escherichia coli MG1655 were grown overnight in tryptic soy broth (TSB): tryptone (17.0 g/L), soytone (3.0), glucose (2.5), sodium chloride (5.0), and dipotassium phosphate (2.5). Incorporation of NBD-phospholipids was carried out in TSB, with subsequent washing and measurement as above.
(§2) After fluorescence measurements, 5 μL cell suspensions were spotted onto glass slides and fixed with 5 μL ProLong Gold (Thermo Fisher Scientific) with DAPI. […] For all 3 bacterial species imaged, the laser power was calibrated such that minimal autofluorescence was detected in unlabeled cells prior to imaging of the labeled cells.

[2] = test system: E. coli; test: Incorporation of NBD-PC, other species; format: cell-based, Escherichia coli MG1655; conditions: 25 μM NBD-PC, 4 hours
Method: as §1, §2

[3] = test system: B. burgdorferi; test: Retention of NBD-PC in the membrane after transfer to rich medium; format: cell-based, Borrelia burgdorferi
Description: FIG. 12 is a graph illustrating that phospholipids are retained in the membrane in the absence of an environmental source. B. burgdorferi was labelled with NBD-PC in lipid-depleted dBSK medium for four hours, washed, and resuspended in rich medium. […] Points are the mean of three biological replicates, with error bars the standard deviation.
This is indicative of nonspecific uptake and is consistent with a model of random diffusion into the membrane. Fluorescence was detectable for up to 4 days after the initial labeling, with a half-life of approximately 1 day (FIG. 12).

## NBD-PC
[1]
  entry of fluorescent phospholipid into membranes: did not enter the membranes
[2]
  entry of fluorescent phospholipid into membranes: did not enter the membranes
[3]; day 1
  fluorescence intensity as % of D0: 56%
[3]; day 4
  fluorescence intensity as % of D0: ~7%

From US20230324382A1, “ANTIPHOSPHOLIPID ANTIBODIES FOR THE DIAGNOSIS OF LYME DISEASE” (Trustees of Tufts College, priority 2022, published 2023)
